# Experimental data as given in patent US5326882A, “Chemiluminescent 3-(substituted Adamant-2'-Ylidene) 1,2-dioxetanes” (Tropix, Inc., priority 1992, dated 1994).
# Tests used:
# [1] = target: T1, alkaline phosphatase (Bos taurus, UniProt P19111); test: Half-time to plateau at low alkaline phosphatase concentration (Example XLI); type: biochemical; conditions: 0.4 mM dioxetane at pH 10.0; 31.5° C.; 2.53 × 10^-13 M alkaline phosphatase
# [2] = target: T1, alkaline phosphatase; test: Chemiluminescent signal-to-noise levels with enhancers (Example XXIV); type: biochemical
# Experimental: The chemiluminescent signal to noise levels were obtained with 2.83×10^-13 M alkaline phosphatase and various R-substituted adamantyl 1,2-dioxetane phosphates in the presence of several enhancers. All measurements were performed in a Berthold LB952T luminometer at room temperature. First, the background chemiluminescence levels (signal in the absence of the enzyme) of each sample (in triplicate) were measured. Each sample consisted of 0.2 μmoles of dioxetane in 0.45 ml of 0.1 M diethanolamine, 1 mM MgCl2, pH 10.0, without or with 1 mg/ml of the indicated enhancer. Tubes were inserted into the luminometer and the luminescence intensity was measured. Next, the tubes were removed from the luminometer and alkaline phosphatase (50 μl containing 1.415×10^-16 moles) was added to each tube, and the luminescence intensity was measured at 5 and 20 minutes after substrate addition. The final concentration of dioxetane in each tube was 0.4 mM.
# All enhancers used at 1 mg/ml in 0.1 M DEA, pH 10. Alkaline phosphatase concentration=2.83×10^-13 M. Measurements performed in a Berthold LB952T Luminometer.
# [3] = target: T1, alkaline phosphatase; test: Detection limits for alkaline phosphatase, Berthold LB952T (Example XXII); type: biochemical; conditions: twice background
# Experimental: (§1) The detection means for alkaline phosphatase with different chemiluminescent 1,2-dioxetane substrates were determined as follows: Duplicates of serial dilutions (1 to 3) of alkaline phosphates were incubated at room temperature with 0.4 mM dioxetane in 0.1 M diethanolamine, 1 mM MgCl2, pH 10.0, containing 1 mg/ml of either of the polymeric enhancers Enhancer 1 or Enhancer 2, in […].
# (§2) Following either a 5 or a 20 minute incubation with a substrate, the chemiluminescence intensity was measured as a 5 second integrated Relative Light Units (RLU) and plotted as in FIG. 10. […] The alkaline phosphatase concentrations at twice background were used as the detection limits in Table 5.
# [4] = target: T2, alkaline phosphatase (calf intestine; Biozyme) (Bos taurus, UniProt P19111); test: Total dephosphorylation, chemiluminescence decay (Example XIII); type: biochemical; conditions: 30° C., carbonate/bicarbonate buffer
# T2 construct: purchased Biozyme; host or cells: calf intestine
# T2 sequence (P19111 20-506 limits assumed): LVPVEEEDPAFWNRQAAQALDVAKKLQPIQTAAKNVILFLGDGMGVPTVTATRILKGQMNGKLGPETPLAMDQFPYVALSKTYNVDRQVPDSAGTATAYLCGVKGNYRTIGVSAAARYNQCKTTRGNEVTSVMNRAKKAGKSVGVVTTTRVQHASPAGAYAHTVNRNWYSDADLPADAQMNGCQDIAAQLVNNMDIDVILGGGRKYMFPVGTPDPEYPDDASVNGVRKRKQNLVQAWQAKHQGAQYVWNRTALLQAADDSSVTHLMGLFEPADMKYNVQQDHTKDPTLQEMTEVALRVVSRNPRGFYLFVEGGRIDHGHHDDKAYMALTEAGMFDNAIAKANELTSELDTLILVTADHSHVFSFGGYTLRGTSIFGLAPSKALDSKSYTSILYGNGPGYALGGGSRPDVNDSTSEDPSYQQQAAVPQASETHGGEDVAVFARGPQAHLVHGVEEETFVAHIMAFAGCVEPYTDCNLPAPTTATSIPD
# Experimental: A comparison of the total luminescence emission from AMPPD and from the corresponding 1,2-dioxetanes whose adamant-2'-ylidene groups are monosubstituted with hydroxy (A and B isomers), chloro and bromo groups was made by carrying out total dephosphorylation experiments on each of these compounds.
# An aqueous solution of the 1,2-dioxetane (4.0 mm) in 0.05M sodium carbonate/sodium bicarbonate containing 1 mM magnesium chloride was prepared and then equilibrated at 30° C. Ten μl of a 7.64×10M aqueous solution of alkaline phosphatase (calf intestine; Biozyme) was then added, and the chemiluminescence from the resulting solution was recorded using a Turner Model 20E luminometer (Turner Instruments; Sunnyvale, Calif.).
# The rates of chemiluminescence decay for each of the five compounds in question, expressed in relative light units (RLU's) per minute, are given in the following table.
# [5] = target: T1, alkaline phosphatase; test: Alkaline phosphatase detection limits, LabSystems Luminoskan (Example XXV); type: biochemical
# Experimental: as §1, §2
# The luminometer used in this example was LabSystems Luminoskan microtiter plate reader.
# [6] = target: T3, alkaline phosphatase-labeled DNA probe (Bos taurus, UniProt P19111); test: Alkaline phosphatase-labeled DNA probe detection in membrane with and without BDMQ blocking step (Example XV); conditions: for Detection limit (in picograms DNA) 5. min. exp.: five minute exposure 40 minutes after dioxetane addition; for Detection limit (in picograms DNA) 1 min. exp.: one minute exposure 77 minutes after dioxetane addition
# T3 construct: purchased Tropix, Inc
# T3 sequence (P19111 20-506 limits assumed): as above
# T3 sequence (P02701 25-152 partner): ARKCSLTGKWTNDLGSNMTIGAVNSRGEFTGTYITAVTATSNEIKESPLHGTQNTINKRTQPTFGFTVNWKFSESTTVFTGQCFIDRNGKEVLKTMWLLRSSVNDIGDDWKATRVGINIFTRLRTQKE
# Experimental: pBr 322 plasmid (4700 bp) was subjected to a nick translation process using a Trans-Light kit (Tropix, Inc., Bedford, Mass.) to generate a mixture of biotinylated single stranded polynucleotides of 200-2000 bps in length.
# This mixture was dotted onto a dry BIODYNE A membrane as five parallel columns of dots of the following concentrations:
# The membrane was subjected to ultraviolet irradiation (UVP Mineral Light; UVP, San Gabriel, Calif.) for 3 minutes to fix the DNA to the surface of the membrane, then air dried. Next, the membrane was blocked in 0.2% casein/0.1% Tween 20 detergent in PBS for 1 hour, following which 1/5000 diluted avidin-alkaline phosphatase conjugate (Tropix, Inc.) in 0.2% casein in PBS was added. The membrane was then incubated for 30 minutes, washed three times (for 5 minutes each time) in 0.2% casein/0.1% Tween 20 detergent in PBS and washed once for five minutes in aqueous 0.1M diethanolamine containing 1 mm magnesium chloride and 0.02% sodium azide, pH 10.0 (substrate buffer).
# Next, the five columns of rows of dots 1-5 were individually cut from the membrane ("strips 1-5"), as were the five columns of rows of dots 6-10 ("strips 6-10"). Strips 1-5 were washed with substrate buffer for 30 minutes. Strips 6-10 were blocked in 0.1% BDMQ in substrate buffer for 30 minutes. Both sets of strips were then incubated for 5 minutes in substrate buffer, then individually incubated for five minutes in aqueous solutions (0.25 mM) of 1,2-dioxetanes as indicated below:
# All strips were then placed in camera luminometers and exposed on Polaroid Type 612 instant black and white film.
# [7] = target: T1, alkaline phosphatase; test: Alkaline phosphatase detection limits, Wilj microtiter plate luminometer (Example XXVI); type: biochemical; conditions: 23 MINUTE INCUBATION
# [8] = enhancer NONE, 5 min, alkaline phosphatase 2.83×10^-13 M
# T1 sequence (P19111 20-506 limits assumed): as the sequence (P19111 20-506 limits assumed) above
smiles,measurement,setting,value
"COC12CC3CC(C1)C1(OOC1(OC)c1cccc(OP(=O)(O)O)c1)C(C3)C2 (single isomer, unassigned) [CH3 O-AMPPD-A]",HALF-TIME TO PLATEAU (min.) AL LOW ALK PHOS CONCENTRATION,[1],0.86 min
"COC1(c2cccc(OP(=O)(O)O)c2)OOC12C1CC3CC2CC(O)(C3)C1 (single isomer, unassigned) [HO-AMPPD]",chemiluminescent signal-to-noise level,"[2]; EMERALD 1 1 mg/ml, 5 min",307
same,chemiluminescent signal-to-noise level,"[2]; EMERALD 1 1 mg/ml, 20 min",386
same,chemiluminescent signal-to-noise level,"[2]; EMERALD 2 1 mg/ml, 5 min",247
same,chemiluminescent signal-to-noise level,"[2]; EMERALD 2 1 mg/ml, 20 min",299
same,chemiluminescent signal-to-noise level,"[2]; SAPPHIRE 1 1 mg/ml, 5 min",229
same,chemiluminescent signal-to-noise level,"[2]; SAPPHIRE 1 1 mg/ml, 20 min",305
same,chemiluminescent signal-to-noise level,"[2]; SAPPHIRE 2 1 mg/ml, 5 min",466
same,chemiluminescent signal-to-noise level,"[2]; SAPPHIRE 2 1 mg/ml, 20 min",643
same,chemiluminescent signal-to-noise level,[2]; [8],55
same,chemiluminescent signal-to-noise level,"[2]; enhancer NONE, 20 min",73
same,Detection limit for alkaline phosphatase,"[3]; ENHANCER 1, 5 MIN",3.0 femtomoles/liter
same,Detection limit for alkaline phosphatase,"[3]; ENHANCER 1, 20 MIN",0.8 femtomoles/liter
same,Detection limit for alkaline phosphatase,"[3]; ENHANCER 2, 5 MIN",1.0 femtomoles/liter
same,Detection limit for alkaline phosphatase,"[3]; ENHANCER 2, 20 MIN",0.3 femtomoles/liter
"COC1(c2cccc(OP(=O)(O)O)c2)OOC12C1CC3CC2CC(I)(C3)C1 (single isomer, unassigned) [ISPD-A]",HALF-TIME TO PLATEAU (min.) AL LOW ALK PHOS CONCENTRATION,[1],0.64 min
"COC1(c2cccc(OP(=O)(O)O)c2)OOC12C1CC3CC2CC(I)(C3)C1 (single isomer, unassigned) [ISPD-B]",HALF-TIME TO PLATEAU (min.) AL LOW ALK PHOS CONCENTRATION,[1],0.70 min
"COC1(c2cccc(OP(=O)(O)O)c2)OOC12C1CC3CC2CC(OC(C)C)(C3)C1 (single isomer, unassigned) [i-PrO-AMPPD-A]",HALF-TIME TO PLATEAU (min.) AL LOW ALK PHOS CONCENTRATION,[1],0.93 min
"COC1(c2cccc(OP(=O)(O)O)c2)OOC12C1CC3CC2CC(OC(C)C)(C3)C1 (single isomer, unassigned) [i-PrO-AMPPD-B]",HALF-TIME TO PLATEAU (min.) AL LOW ALK PHOS CONCENTRATION,[1],0.68 min
"COC1(c2cccc(OP(=O)(O)O)c2)OOC12C1CC3CC2CC(Br)(C3)C1 (centres unmarked) [Br-AMPPD, disodium 3-(4-methoxyspiro-[1,2-dioxetane-3,2'-(5'-bromo)tricyclo[3.3.1.1^3,7]decan]-4-yl) phenyl phosphate]",Total Decay Time,[4],40 min
same,Decay Rate I,[4]; RLU's per minute,1.2 RLU's per minute
same,Decay Rate II,[4]; RLU's per minute,0.8 RLU's per minute
same,chemiluminescent signal-to-noise level,"[2]; EMERALD 1 1 mg/ml, 5 min",149
same,chemiluminescent signal-to-noise level,"[2]; EMERALD 1 1 mg/ml, 20 min",915
same,chemiluminescent signal-to-noise level,"[2]; EMERALD 2 1 mg/ml, 5 min",315
same,chemiluminescent signal-to-noise level,"[2]; EMERALD 2 1 mg/ml, 20 min",503
same,chemiluminescent signal-to-noise level,"[2]; SAPPHIRE 1 1 mg/ml, 5 min",383
same,chemiluminescent signal-to-noise level,"[2]; SAPPHIRE 1 1 mg/ml, 20 min",566
same,chemiluminescent signal-to-noise level,"[2]; SAPPHIRE 2 1 mg/ml, 5 min",688
same,chemiluminescent signal-to-noise level,"[2]; SAPPHIRE 2 1 mg/ml, 20 min",1019
same,chemiluminescent signal-to-noise level,[2]; [8],77
same,chemiluminescent signal-to-noise level,"[2]; enhancer NONE, 20 min",92
same,Alkaline phosphatase detection limit (at 2× background),"[5]; SAPPHIRE II, 5 MINUTE INCUBATION",0.0004 pM
same,Alkaline phosphatase detection limit (at 2× background),"[5]; SAPPHIRE II, 20 MINUTE INCUBATION",0.00039 pM
same,Alkaline phosphatase detection limit (at 2× background),"[5]; SAPPHIRE, 5 MINUTE INCUBATION",0.0027 pM
same,Alkaline phosphatase detection limit (at 2× background),"[5]; SAPPHIRE, 20 MINUTE INCUBATION",0.0004 pM
same,Detection limit (in picograms DNA) 5. min. exp.,[6]; BDMQ blocking step,0.313 picograms DNA
same,Detection limit (in picograms DNA) 1 min. exp.,[6]; BDMQ blocking step,0.313 picograms DNA
same,Detection limit (in picograms DNA) 5. min. exp.,[6]; no BDMQ blocking step,1.250 picograms DNA
same,Detection limit (in picograms DNA) 1 min. exp.,[6]; no BDMQ blocking step,2.500 picograms DNA
same,Detection limit for alkaline phosphatase,"[3]; ENHANCER 1, 5 MIN",2.6 femtomoles/liter
same,Detection limit for alkaline phosphatase,"[3]; ENHANCER 1, 20 MIN",0.5 femtomoles/liter
same,Detection limit for alkaline phosphatase,"[3]; ENHANCER 2, 5 MIN",0.4 femtomoles/liter
same,Detection limit for alkaline phosphatase,"[3]; ENHANCER 2, 20 MIN",0.3 femtomoles/liter
same,Alkaline phosphatase detection limit (at 2× background),[7]; SAPPHIRE II,0.00074 pM
same,Alkaline phosphatase detection limit (at 2× background),[7]; SAPPHIRE,0.00021 pM
COC1(c2cccc(OP(=O)(O)O)c2)OOC12C1CC3CC2CC(Br)(C3)C1 (centres unmarked) [BrSPD],HALF-TIME TO PLATEAU (min.) AL LOW ALK PHOS CONCENTRATION,[1],0.70 min
COC1(c2cccc(OP(=O)(O)O)c2)OOC12C1CC3CC2CC(Cl)(C3)C1 (centres unmarked) [CSPD],HALF-TIME TO PLATEAU (min.) AL LOW ALK PHOS CONCENTRATION,[1],0.71 min
COC1(c2cccc(OP(=O)(O)O)c2)OOC12C1CC3CC2CC(F)(C3)C1 (centres unmarked) [FSPD],HALF-TIME TO PLATEAU (min.) AL LOW ALK PHOS CONCENTRATION,[1],0.74 min
CCCCOC12CC3CC(C1)C1(OOC1(OC)c1cccc(OP(=O)(O)O)c1)C(C3)C2 (centres unmarked) [n-BuO-AMPPD],HALF-TIME TO PLATEAU (min.) AL LOW ALK PHOS CONCENTRATION,[1],0.71 min
